# Assay results: paper PMC7648750, “In vitro and in vivo BNCT investigations using a carborane containing sulfonamide targeting CAIX epitopes on malignant pleural mesothelioma and breast cancer cells” (Scientific Reports, 2020)
# Key:
# AB22 cells = assay: BNCT in vitro: viable cells 24 h after neutron irradiation (trypan blue); format: cell-based, mouse; conditions: AB22, 130 µM 24 h, thermal neutrons 15 min 30 kW, 24 h after irradiation
# Description: (§1) 75 flasks of MCF7 (4 flasks), ZL34 (4 flasks) and AB22 (4 flasks) were seeded at a density of 1.8 × 10^6 cells, 1.2 × 10^6 cells and 5.5 × 10^5 cells, respectively. 24 h later for MCF7 and ZL34 and 72 h later for AB22, 2 flasks of each cell lines were incubated for 24 h in the presence of 72 µM, 187.5 µM and 130 µM of CA-SF, respectively. After the incubation, cells were washed with PBS and their medium was renewed. Two flasks of MCF7, ZL34 and AB22 cells incubated with CA-SF and two flasks containing non-treated control cells were irradiated for 15′ at 30 kW reactor power in the thermal column of the TRIGA Mark II reactor at the University of Pavia, Italy. At the end of the irradiation, the medium was removed, it was replaced with fresh medium and flasks were placed at 37 °C in a humidified atmosphere of 5% CO2.
# (§2) The proliferation assay was carried out following the same procedure reported in reference 32. The day after irradiation cells were detached with 0.05% trypsin and 0.02% EDTA and the trypan blue exclusion test of cell viability was performed. Cell viability was reported as percentage of cells observed in treated a/o irradiated samples relative to that observed in control cells.
# ZL34 cells [1] = assay: Proliferation assay of cells surviving irradiation; format: cell-based, human; conditions: ZL34, 187.5 µM CA-SF before neutron irradiation
# Description: as §1, with “At the end of the irradiation, the medium was removed, it was replaced with fresh medium and flasks were placed at 37 °C in a humidified atmosphere of 5% CO2.” left out
# (§3) Then, around 7 × 10^5 MCF7, 3.5 × 10^5 ZL34 and 1 × 10^5 AB22 cells from each differently treated flask were seeded in 10 cm diameter culture dishes. […] Then, cells were sonicated for 30 s at 30% power in ice and the total cell protein concentration (that is proportional to the number of cells) from cell lysates was determined by the Bradford method, using bovine serum albumin as a standard. The Cell Growth Rate was calculated as follows: Number of cellsti-Number of cellst0/Number of cellst0×100 for which Number of cells (ti) is the number of cells measured at the various time intervals and the number of cells (t0) is the number of cells at the starting point (t = 0) of the proliferation assay.
# MCF7 cells [2] = assay: Proliferation assay of cells surviving irradiation; format: cell-based, human; conditions: MCF7, 72 µM CA-SF before neutron irradiation
# Description: as §1, with “At the end of the irradiation, the medium was removed, it was replaced with fresh medium and flasks were placed at 37 °C in a humidified atmosphere of 5% CO2.” left out
# as §3
# [3] = Boron biodistribution in AB22 tumour bearing mice (ICP-MS); format: in vivo, Balb/c mice; conditions: 37.5 mg/kg of boron, ± SD; for Brain [boron]: with β-cyclodextrin oligomer
# Description: Adult male Balb/c mice were maintained under specific pathogen-free conditions at the animal facility of the Department of Molecular Biotechnology and Health Sciences (Turin University, Italy). All animal experiments have been carried out in accordance with the EU Directive 2010/63/EU for animal experiments. The animal treatment protocol was approved by the Italian Ministry of Health (Authorization Number 1012/2015-PR). AB22 cells were cultured as described above and tumours were generated by the injection of 4.8 × 10^6 AB22 cells in a final volume of 0.15 ml GFNR Matrigel (CORNING Ref. 354234): PBS (1:1 v/v) subcutaneously in the neck of the mouse. One week after the AB22-cell injection, the mice developed solid tumours of approximately 50 ± 10 mm^3 in volume. At this time, mice (n = 6) received an intravenous injection of CA-SF (88 mg/kg corresponding to 37.5 mg/kg of ^10B). Before the injection, CA-SF in DMSO was mixed in the presence of poly β-cyclodextrin (MW = 15,000 Da) previously dissolved in 0.9% solution of NaCl. The used CA-SF molar ratio with respect to β-cyclodextrin oligomer was 10:1. The DMSO concentration in 0.9% NaCl was kept under 5%. The mice were then sacrificed at 6 h (n = 3) and at 16 h (n = 3). The boron content of mice plasma, tumours, organs (Liver, Lung, Brain, Spleen, Kidneys) and healthy tissues (Muscle) was determined by ICP-MS technique (see below).
# Boron content from cell samples, mice organs, plasma and tumours were determined using inductively coupled plasma mass spectrometry (ICP-MS) (Element-2; Thermo-Finnigan, Rodano (MI), Italy).
# The mice blood was collected and centrifuged at 2500 rpm for 10 min to split the plasma part over whole blood; the tumours, organs and healthy tissues were explanted. All was weighted, dissolved in HNO3 (70%) and digested. Both natural boron abundant and ^10B enriched standard solution was analyzed during sample runs in order to check for variations in the systematic bias. The calibration curve was obtained using four boron absorption standard solutions (Sigma-Aldrich) in the range 0.1–0.004 μg/mL.
# ZL34 cells [4] = assay: BNCT in vitro: viable cells 24 h after neutron irradiation (trypan blue); format: cell-based, human; conditions: ZL34, 187.5 µM 24 h, thermal neutrons 15 min 30 kW, 24 h after irradiation
# Description: as §1, §2
# MCF7 cells [5] = assay: as above; format: cell-based, human; conditions: MCF7, 72 µM 24 h, thermal neutrons 15 min 30 kW, 24 h after irradiation
# Description: as §1, §2
substance,measurement,setting,value
1-Sulfonamidomethyl-o-carborane [CA-SF],viability of CA-SF treated and irradiated cells vs CA-SF treated cells,AB22 cells,significantly reduced
same,proliferation rate of cells surviving to irradiation,ZL34 cells [1],marked inhibition of proliferation
same,proliferation rate of cells surviving to irradiation,MCF7 cells [2],marked inhibition of proliferation
same,Brain [boron],[3]; 6 h post i.v.,30.7 ± 11.2 µg/g
same,Kidney [boron],[3]; 6 h post i.v.,48.2 ± 15.3 µg/g
same,Liver [boron],[3]; 6 h post i.v.,64.5 ± 1.2 µg/g
same,Lungs [boron],[3]; 6 h post i.v.,37.2 ± 11.2 µg/g
same,Muscle [boron],[3]; 6 h post i.v.,13.2 ± 2.5 µg/g
same,Plasma [boron],[3]; 6 h post i.v.,20.4 ± 5.4 µg/g
same,Spleen [boron],[3]; 6 h post i.v.,18.5 ± 5.8 µg/g
same,Tumour [boron],[3]; 6 h post i.v.,13.8 ± 2.4 µg/g
same,Brain [boron],[3]; 16 h post i.v.,7.3 ± 1.1 µg/g
same,Kidney [boron],[3]; 16 h post i.v.,13.7 ± 1.9 µg/g
same,Liver [boron],[3]; 16 h post i.v.,22.7 ± 3.5 µg/g
same,Lungs [boron],[3]; 16 h post i.v.,12.1 ± 2.2 µg/g
same,Muscle [boron],[3]; 16 h post i.v.,4.4 ± 1.2 µg/g
same,Plasma [boron],[3]; 16 h post i.v.,11.1 ± 1.3 µg/g
same,Spleen [boron],[3]; 16 h post i.v.,6.2 ± 1.5 µg/g
same,Tumour [boron],[3]; 16 h post i.v.,7.4 ± 2.1 µg/g
same,viability of CA-SF treated and irradiated cells vs CA-SF treated cells,ZL34 cells [4],comparable
same,viability of CA-SF treated and irradiated cells vs CA-SF treated cells,MCF7 cells [5],significantly reduced
